Data as given in patent publication US6458593B1, “Immortalized cell lines and methods of making the same” (Vitro Diagnostics, Inc., priority 1999, dated 2002).
No end group written: not given here.

Experiments:
Format in all cases: cell-based
[1] = test system: primary cultured human pituitary cells; test: Pituitary hormone secretion from primary cultures of panned human pituitary cells; set-up: key to Effect on LH secretion / Effect on PRL secretion / Effect on FSH secretion / Effect on GH secretion: NE: no effect detected; +: stimulatory; −: inhibitory; details: for Optimum condition (concentration) for GH secretion / Optimum condition (concentration) for PRL secretion / Optimum condition (concentration) for FSH secretion / Optimum condition (concentration) for LH secretion: Gc medium
Protocol: Fetal human pituitary glands were obtained from Anatomical Gift Foundation (White Oak, Ga.) or Advanced Bioscience Resources, (Alameda, Calif.). Pituitary glands were stored in approximately 20 mls of RPMI culture media at 4° C. and processed within 24 hours of dissection. The gestational age ranged from 19 to 24 weeks. The following dispersion procedure was performed using sterile materials and technique throughout. Tissue was rinsed in 30 mls modified Kreb's Ringer solution, supplemented with 5 g/L bovine serum albumin (BSA) and nonessential amino acids. The tissue was then transferred to a glass microscope slide, and finely minced using scapels. Minced tissue was suspended in 2 to 2.25 mls modified Kreb's Ringer containing 1 mg/ml collagenase (Sigma Chemical Co., St. Louis, Mo.). The mixture was incubated at 37° C. with rotation at 250 rpm for 60 minutes. The dispersed cells were washed in 20 mls DMEM/F12 medium and centrifuged (5 minutes at 428×g). The supernatant was aspirated leaving 2-4 mls, and two additional washes were performed using 10 mls DMEM/F12. Cells were counted using a hemacytometer (Fresney, I R, 1987). The total number of cells ranged from 100,000 to 2 million per gland, with greater cell numbers in older pituitary glands. The mixture was centrifuged (5 minutes at 428×g). The pellet was then resuspended in culture media, as described below, at approximately 10^5 cells/ml and plated into multi-well, styrene tissue culture plates, incubated at 37° C. in humidified air supplemented with 5% CO2.
Primary culture conditions necessary for the proliferation of endocrine cells of the pituitary gland were investigated. The present invention requires cellular proliferation of target cells for integration of foreign DNA into the host cell genome and induction of immortalization. The pituitary gland is composed of numerous cell types including fibroblasts, follicular stellate cells, endocrine epithelial cells (gonadotropes, thyrotropes, somatotropes, lactotropes, melanotropes, corticotropes) and endothelial cells from blood vessels. Since the hormone-producing endocrine cells are one target of the present invention, we investigated methods to enrich the population of endocrine cells. […] Primary cultures were panned by initially plating the dispersed pituicytes in a single 35 mm tissue culture dish at about 5×10^4 cells/ml. After 16-24 hours, less adherent cells were removed from these cultures by repetitive pipetting of media (approximately 10 times). These cells were pelleted by centrifugation (5 minutes at 428×g) and replated at 10^5 cells/ml.
To monitor the viability and/or secretory capability of the hormone-producing endocrine cells, we measured secretion of pituitary hormones from cultures of panned pituitary cells. The level of FSH, LH, prolactin and TSH in culture media was determined using an automated chemiluminescent-based immunoanalyzer, ACS: 180™ (Chiron Diagnostics, Inc., Norwood, Mass.). Growth hormone was determined using an immunoradiometric assay (Nichols Institute, San Juan Capistrano, Calif.). Culture media was harvested on Mondays and Fridays from growing cultures for several weeks. These cultures were maintained in 48-well plates (Falcon/Becton Dickinson, Franklin Lakes, N.J.), with each well containing 1 ml of media. The majority of the media were carefully removed to avoid uptake of cells and transferred to 12×75 mm tubes for analysis. Cells were fed with an equal volume of fresh medium at the same time points. Background levels of GH in various media were insignificant (<0.1 ng/ml). Each condition was tested in duplicate and graphed values are the mean hormone concentration +/− standard deviation.
Similar types of experiments were done to optimize cell culture conditions and components for secretion of GH, FSH, LH, and prolactin from primary cultured human pituitary cells. […]

[2] = test system: primary pituitary cultures; test: G418 selection: killing of non-transfected human pituitary cells
Protocol: Dispersed and panned cells human pituitary cells were plated at 200,000 to 300,000 cells per ml in 6-well plates (Falcon/Becton Dickinson, Franklin Lakes, N.J.) and grown until 30-50% confluent. Transfection was performed using cationic lipids to deliver plasmids containing either the SV40 large T antigen or the v-myc oncogene into primary-cultured pituitary cells. Plasmids without oncogenes were used as controls for transfection. Wells transfected with control plasmid slightly outlived primary cell cultures due to the presence of the gene coding for G418 resistance but died after 2 to 3 weeks or a single passage of the cells. Using Lipfectin®, we transfected panned pituitary cells with either pSV3neo (Southern, P J and Berg, P J, 1982) or pLXSN-v-myc, constructed as described below. The concentration of DNA was kept constant (typically […]) in each well while the amount of cationic lipid increased from 0-20 μl. […] The formation of colonies in the presence of G418 was monitored for a varying number of weeks.
Primary cultured human pituitary cells transfected with pSV3neo were incubated for an additional 48 to 60 hours in Gc medium with 10^−10 M estradiol and nonessential amino acids before G418 selection. […] Medium was replaced every 3 to 4 days and the formation of individual colonies was monitored visually. […]

[3] = test system: immortalized bovine pituitary cells; test: Bovine GH secretion into conditioned media (immunoblot); details: 10 μM, 3 hours in media without FBS, passage 2-10
Protocol: Additional experiments were performed using highly sensitive immunological methods to detect bovine growth hormone within live, individual cells in the immortalized cultures. Bovine GH-specific monoclonal antibodies were obtained from Biogenesis, Inc. (Catalog No. 4750-0939) and OEM Concepts (Toms River, N.J.). […] A cellular blotting method was used to monitor bovine GH secretion from pituitary cells grown in culture, as described by Gibson-D'Ambrosio, et al. (1995). By localizing bovine GH within cultures, it was possible to obtain enriched cultures of bovine somatotropes prior to transfection with pSV3neo. […] These cell lines are indicated in Table 2 with the designation bGH, e.g., bGH C5.
To test for secretion of bovine GH from immortalized bovine cell line, cultures of passage 2-10 were grown to confluence in FBS-containing media, washed three times with PBS and incubated for 3 hours in media without FBS. Duplicate wells contained 10 μM bovine growth hormone releasing factor (GHRF).

[4] = primary human pituitary cultures
[5] = initial treatment, in the presence of cortisone and estrogen

With `C[C@]12CC[C@@H]3c4ccc(O)cc4CC[C@H]3[C@@H]1CC[C@@H]2O` [17β-Estradiol] the “Effect on GH secretion” value ([1]; 10^−10 M in medium, previous experiments) was “stimulatory effect”, the “Effect on FSH secretion” value [1, 4] was “NE” and the “Effect on LH secretion” value [1, 4] was “NE”. For the same compound, the “Optimum condition (concentration) for GH secretion” value [1, 4] was 100 pM and the “Optimum condition (concentration) for PRL secretion” value [1, 4] was 100 pM.
With `CN[C@@H]1[C@@H](O)[C@@H](O[C@@H]2[C@@H](O)[C@H](O[C@H]3O[C@H]([C@@H](C)O)[C@@H](O)[C@H](O)[C@H]3N)[C@@H](N)C[C@H]2N)OC[C@]1(C)O` [G418] the Non-transfected cells killed ([2]; 250 μg/ml, final dose) was 100% and the “Concentration sufficient to kill all primary pituitary cultures tested” value ([2]; human primary pituitary cultures) was 150 µg/mL.
`C[C@]12CCC(=O)C=C1CC[C@@H]1[C@@H]2[C@@H](O)C[C@@]2(C)[C@H]1CC[C@]2(O)C(=O)CO` [Hydrocortisone] was tested, and the “Effect on LH secretion” value [1, 4] was “NE”, the “Effect on PRL secretion” value [1, 4] was “NE” and the “Optimum condition (concentration) for FSH secretion” value [1, 4] was 5e-08 M. For the same compound, the “Optimum condition (concentration) for GH secretion” value [1, 4] was 50000 pM.
For `N[C@@H](Cc1cc(I)c(Oc2ccc(O)c(I)c2)c(I)c1)C(=O)O` [T3, 3,5,3′ triiodothyronine], the “Effect on TSH release” value ([1]; 10^−10 M) was “strongly inhibitory”, the “Effect on secretion of GH” value ([1]; 10^−10 M) was “beneficial” and the “Effect on secretion of LH” value ([1]; 10^−10 M) was “beneficial”. For the same compound, the “Effect on secretion of prolactin” value ([1]; 10^−10 M) was “beneficial”, the “Effect on FSH secretion” value [1, 4] was “NE” and the “Optimum condition (concentration) for GH secretion” value [1, 4] was 100 pM. The “Optimum condition (concentration) for LH secretion” value [1, 4] was 1e-10 M and the “Optimum condition (concentration) for PRL secretion” value [1, 4] was 100 pM.
“FGF-basic: basic fibroblast growth factor, growth factor addition to the medium” was tested, and the “Effect on GH release” value ([1]; 0.1 ng/ml, preliminary evidence) was “potentiates”, the “Effect on FSH secretion” value [1, 4] was “NE” and the “Effect on LH secretion” value [1, 4] was “NE”. For the same compound, the “Effect on PRL secretion” value [1, 4] was “NE” and the “Optimum condition (concentration) for GH secretion” value [1, 4] was 0.1 ng/mL.
For “GHRF: bovine growth hormone releasing factor (YADAIFTNSYRKVLGQLSARKLLQDIMNRQQGERNQEQGAKVRL; ends and bridges not checked; UniProt P63292 31-74, looked up)”, the “Effect on amount of bovine GH secreted” value [3] was “appeared to be potentiated”.
For “GnRH: gonadotropin releasing hormone, a hypothalamic releasing hormone (QHWSYGLRPG; ends and bridges not checked; UniProt P01148 24-33, looked up)”, the “Effect on FSH secretion” value [1, 5] was “significantly potentiated”, the “Effect on LH secretion” value [1, 5] was “significantly potentiated” and the “Effect on GH secretion” value [1, 4] was “NE”. For the same compound, the “Effect on PRL secretion” value [1, 4] was “NE”, the “Optimum condition (concentration) for FSH secretion” value [1, 4] was 10^−10 M and the “Optimum condition (concentration) for LH secretion” value [1, 4] was 10^−7 to 10^−10M.
